Tests used:
Format in all cases: functional
[1] = test system: SF-268; test: Growth inhibition of human SF268 cells by sulforhodamine B assay
[2] = test system: HT-29; test: Growth inhibition of human HT-29 cells by sulforhodamine B assay
[3] = test system: COLO 205; test: Growth inhibition of human COLO205 cells by sulforhodamine B assay
[4] = test system: NCI-H226; test: Growth inhibition of human NCI-H226 cells by sulforhodamine B assay
[5] = test system: A549; test: Growth inhibition of human A549/ATCC cells by sulforhodamine B assay
[6] = test system: M14; test: Growth inhibition of human M14 cells assessed as cell growth at 10^-8 M by sulforhodamine B assay; conditions: read-out: Activity
[7] = test system: SF-295; test: Growth inhibition of human SF295 cells assessed as cell growth at 10^-8 M by sulforhodamine B assay; conditions: read-out: Activity
[8] = test system: SF-268; test: Growth inhibition of human SF268 cells assessed as cell growth at 10^-8 M by sulforhodamine B assay; conditions: read-out: Activity
[9] = test system: SW-620; test: Growth inhibition of human SW620 cells assessed as cell growth at 10^-8 M by sulforhodamine B assay; conditions: read-out: Activity
[10] = test system: NCI-H322M; test: Growth inhibition of human NCI-H322M cells assessed as cell growth at 10^-8 M by sulforhodamine B assay; conditions: read-out: Activity
[11] = test system: NCI-H23; test: Growth inhibition of human NCI-H23 cells assessed as cell growth at 10^-8 M by sulforhodamine B assay; conditions: read-out: Activity
[12] = test system: A549; test: Growth inhibition of human A549/ATCC cells assessed as cell growth at 10^-8 M by sulforhodamine B assay; conditions: read-out: Activity
[13] = test system: PC-3; test: Growth inhibition of human PC3 cells by sulforhodamine B assay
[14] = test system: DU-145; test: Growth inhibition of human DU145 cells by sulforhodamine B assay
[15] = test system: CAKI-1; test: Growth inhibition of human CAKI-1 cells by sulforhodamine B assay
[16] = test system: ACHN; test: Growth inhibition of human ACHN cells by sulforhodamine B assay
[17] = test system: A498; test: Growth inhibition of human A498 cells assessed as cell growth at 10^-4 M by sulforhodamine B assay; conditions: read-out: Activity
[18] = test system: 786-0; test: Growth inhibition of human 786-0 cells assessed as cell growth at 10^-4 M by sulforhodamine B assay; conditions: read-out: Activity
[19] = test system: SK-MEL-5; test: Growth inhibition of human SK-MEL-5 cells assessed as cell growth at 10^-4 M by sulforhodamine B assay; conditions: read-out: Activity
[20] = test system: HT-29; test: Growth inhibition of human HT-29 cells assessed as cell growth at 10^-4 M by sulforhodamine B assay; conditions: read-out: Activity
[21] = test system: NCI-H226; test: Growth inhibition of human NCI-H226 cells assessed as cell growth at 10^-4 M by sulforhodamine B assay; conditions: read-out: Activity
[22] = Growth inhibition of human Hs 578T cells assessed as cell growth at 10^-6 M by sulforhodamine B assay; conditions: read-out: Activity
[23] = test system: CAKI-1; test: Growth inhibition of human CAKI-1 cells assessed as cell growth at 10^-6 M by sulforhodamine B assay; conditions: read-out: Activity
[24] = test system: OVCAR-5; test: Growth inhibition of human OVCAR5 cells assessed as cell growth at 10^-6 M by sulforhodamine B assay; conditions: read-out: Activity
[25] = test system: SK-MEL-5; test: Growth inhibition of human SK-MEL-5 cells assessed as cell growth at 10^-6 M by sulforhodamine B assay; conditions: read-out: Activity
[26] = test system: SK-MEL-28; test: Growth inhibition of human SK-MEL-28 cells assessed as cell growth at 10^-6 M by sulforhodamine B assay; conditions: read-out: Activity
[27] = test system: MDA-MB-435; test: Growth inhibition of human MDA-MB-435 cells assessed as cell growth at 10^-6 M by sulforhodamine B assay; conditions: read-out: Activity
[28] = test system: LOX IMVI; test: Growth inhibition of human LOXIMVI cells assessed as cell growth at 10^-6 M by sulforhodamine B assay; conditions: read-out: Activity
[29] = test system: SNB-75; test: Growth inhibition of human SNB75 cells assessed as cell growth at 10^-6 M by sulforhodamine B assay; conditions: read-out: Activity
[30] = test system: HT-29; test: Growth inhibition of human HT-29 cells assessed as cell growth at 10^-6 M by sulforhodamine B assay; conditions: read-out: Activity
[31] = Growth inhibition of human HCC2998 cells assessed as cell growth at 10^-6 M by sulforhodamine B assay; conditions: HCC 2998, read-out: Activity
[32] = test system: RPMI-8226; test: Growth inhibition of human RPMI8226 cells assessed as cell growth at 10^-6 M by sulforhodamine B assay; conditions: read-out: Activity
[33] = test system: HL-60(TB); test: Growth inhibition of human HL-60(TB) cells assessed as cell growth at 10^-6 M by sulforhodamine B assay; conditions: read-out: Activity
[34] = test system: MDA-MB-435; test: Growth inhibition of human MDA-MB-435 cells assessed as cell growth at 10^-7 M by sulforhodamine B assay; conditions: read-out: Activity
[35] = test system: U-251; test: Growth inhibition of human U251 cells assessed as cell growth at 10^-7 M by sulforhodamine B assay; conditions: read-out: Activity
[36] = test system: SNB-19; test: Growth inhibition of human SNB19 cells assessed as cell growth at 10^-7 M by sulforhodamine B assay; conditions: read-out: Activity
[37] = test system: A549; test: Growth inhibition of human A549/ATCC cells assessed as cell growth at 10^-7 M by sulforhodamine B assay; conditions: read-out: Activity
[38] = test system: MOLT-4; test: Growth inhibition of human MOLT4 cells assessed as cell growth at 10^-7 M by sulforhodamine B assay; conditions: read-out: Activity
[39] = test system: OVCAR-5; test: Growth inhibition of human OVCAR5 cells assessed as cell growth at 10^-8 M by sulforhodamine B assay; conditions: read-out: Activity
[40] = read-out: LC50 (the source's name)
[41] = read-out: pLC50 (the source's name) (converted)

Structure (SMILES): C/C=C(/C)C(=O)O[C@@H]1CC(C)(C)C[C@H]2C3=CC[C@@H]4[C@@]5(C)CC[C@H](O)C(C)(C)[C@@H]5CC[C@@]4(C)[C@]3(C)CC[C@@]12C(=O)O [Reduced Lantadene A]
- GI50 ([1]; read-out: GI50): 2.16 µM
- TGI ([1]; read-out: TGI): 4.42 µM
- GI50 ([1]; read-out: pGI50 (converted)): 2.14 µM
- TGI ([1]; read-out: pTGI (converted)): 4.47 µM
- GI50 ([2]; read-out: GI50): 2.16 µM
- LC50 (50% cell kill) ([2]; read-out: LC50): 8.77 µM
- TGI ([2]; read-out: TGI): 4.35 µM
- GI50 ([2]; read-out: pGI50 (converted)): 2.14 µM
- LC50 (50% cell kill) ([2]; read-out: pLC50 (converted)): 8.71 µM
- TGI ([2]; read-out: pTGI (converted)): 4.37 µM
- GI50 ([3]; read-out: GI50): 2.11 µM
- GI50 ([3]; read-out: pGI50 (converted)): 2.09 µM
- GI50 ([4]; read-out: GI50): 1.71 µM
- LC50 ([4]; read-out: LC50): 8.43 µM
- TGI ([4]; read-out: TGI): 3.79 µM
- GI50 ([4]; read-out: pGI50 (converted)): 1.7 µM
- LC50 ([4]; read-out: pLC50 (converted)): 8.51 µM
- TGI ([4]; read-out: pTGI (converted)): 3.8 µM
- GI50 ([5]; read-out: GI50): 1.19 µM
- CC50 [5, 40]: 6.37 µM
- TGI ([5]; read-out: TGI): 2.76 µM
- GI50 ([5]; read-out: pGI50 (converted)): 1.2 µM
- CC50 [5, 41]: 6.31 µM
- TGI ([5]; read-out: pTGI (converted)): 2.75 µM
- growth at 0.01 µM [6]: 100%
- growth at 0.01 µM [7]: 93%
- growth at 0.01 µM [8]: 101%
- growth at 0.01 µM [9]: 99%
- growth at 0.01 µM [10]: 102%
- growth at 0.01 µM [11]: 101%
- growth at 0.01 µM [12]: 93%
- GI50 ([13]; read-out: GI50): 1.34 µM
- CC50 [13, 40]: 6.01 µM
- TGI ([13]; read-out: TGI): 2.84 µM
- GI50 ([13]; read-out: pGI50 (converted)): 1.35 µM
- CC50 [13, 41]: 6.03 µM
- TGI ([13]; read-out: pTGI (converted)): 2.82 µM
- GI50 ([14]; read-out: GI50): 2.12 µM
- TGI ([14]; read-out: TGI): 4.04 µM
- GI50 ([14]; read-out: pGI50 (converted)): 2.14 µM
- TGI ([14]; read-out: pTGI (converted)): 4.07 µM
- GI50 ([15]; read-out: GI50): 2.48 µM
- CC50 [15, 40]: 56.3 µM
- TGI ([15]; read-out: TGI): 9.08 µM
- GI50 ([15]; read-out: pGI50 (converted)): 2.45 µM
- CC50 [15, 41]: 56.2 µM
- TGI ([15]; read-out: pTGI (converted)): 9.12 µM
- GI50 ([16]; read-out: GI50): 1.82 µM
- CC50 [16, 40]: 9.07 µM
- TGI ([16]; read-out: TGI): 4.06 µM
- GI50 ([16]; read-out: pGI50 (converted)): 1.82 µM
- CC50 [16, 41]: 9.12 µM
- TGI ([16]; read-out: pTGI (converted)): 4.07 µM
- growth at 100 µM [17]: -74%
- growth at 100 µM [18]: -55%
- growth at 100 µM [19]: -63%
- growth at 100 µM [20]: -64%
- growth at 100 µM [21]: -73%
- growth at 1 µM [22]: 92%
- growth at 1 µM [23]: 85%
- growth at 1 µM [24]: 113%
- growth at 1 µM [25]: 83%
- growth at 1 µM [26]: 90%
- growth at 1 µM [27]: 90%
- growth at 1 µM [28]: 97%
- growth at 1 µM [29]: 76%
- growth at 1 µM [30]: 105%
- growth at 1 µM [31]: 101%
- growth at 1 µM [32]: 70%
- growth at 1 µM [33]: 99%
- growth at 0.1 µM [34]: 94%
- growth at 0.1 µM [35]: 90%
- growth at 0.1 µM [36]: 90%
- growth at 0.1 µM [37]: 90%
- growth at 0.1 µM [38]: 98%
- growth at 0.01 µM [39]: 100%
